Laboratory results from US10307451B2, “Phytoestrogen product of red clover and pharmaceutical uses thereof” (Sinoveda Canada Inc., priority 2010, dated 2019).
Converted amounts (≈) assume the structure as drawn. Like-named read-outs stand apart in the source and are kept apart here.

Assays:
Caco-2 = details: human
plasma protein = assay: Plasma protein binding of absorbable aglycones; format: in vitro ADME
Source text: (§1) The protocol used by (Moon, Sagawa et al. 2006) was used for measuring plasma protein binding of the absorbable aglycones. Parameters have been used for PBPK simulation. Conjugates of Biochanin A, formononetin, Genistein, Daidzein and Equol are predominant components in plasma. The respective aglycones constitute less than 5% of the total concentration.

MC3T3 cells = assay: Osteoblast differentiation of MC3T3 cells (ALP/cell number); format: cell-based; details: 10 μM total isoflavones, 1 week
Method: Effects of isoflavones on the differentiation of osteoblast in MC3T3 cells followed Ge et al., 2006 and osteoclast differentiation in Raw264.7 cells followed Garcia Palacios et al., 2005. Cell numbers were measured with CellTag from Li-Cor Biosciences. Both activities of alkaline and acid phosphatase were measured with a plate reader at 405 nm. Isoflavones were first dissolved in DMSO and stock solutions were prepared at 10 mM and the final concentration of total isoflavones in test solution was 10 μM. Osteoblast and osteoclast differentiations were quantified by measuring activities of alkaline phosphatase (ALP) and acidic phosphatase (ACP). ALP is highly expressed by the mature osteoblasts and ACP is expressed by osteoclasts. Values of integrated intensity of fluorescence from […] staining serve as a correction factor for the difference in cell numbers. Therefore, ALP/cell number and ACP/cell number ratios are used to quantify osteoblast and osteoclast activities. Confluence MC3T3 cells were treated with 10 μM of isoflavones for 1 week and then the activity of alkaline phosphatase (ALP) was measured as an indicator of differentiation. […] To examine if there were any synergistic effects, two isoflavones were mixed in a 1:9 ratio and tested in the final concentration of 10 μM. […]

Raw264.7 cells = assay: Osteoclast differentiation in Raw264.7 cells (ACP/cell number); format: cell-based; details: 10 μM total isoflavones, MCSF and RANKL stimulated
Method: Effects of isoflavones on the differentiation of osteoblast in MC3T3 cells followed Ge et al., 2006 and osteoclast differentiation in Raw264.7 cells followed Garcia Palacios et al., 2005. Cell numbers were measured with CellTag from Li-Cor Biosciences. Both activities of alkaline and acid phosphatase were measured with a plate reader at 405 nm. Isoflavones were first dissolved in DMSO and stock solutions were prepared at 10 mM and the final concentration of total isoflavones in test solution was 10 μM. Osteoblast and osteoclast differentiations were quantified by measuring activities of alkaline phosphatase (ALP) and acidic phosphatase (ACP). ALP is highly expressed by the mature osteoblasts and ACP is expressed by osteoclasts. Values of integrated intensity of fluorescence from […] staining serve as a correction factor for the difference in cell numbers. Therefore, ALP/cell number and ACP/cell number ratios are used to quantify osteoblast and osteoclast activities. Raw246.7 cells were treated with MCSF and RANKL to stimulate the differentiation of osteoclasts. Isoflavones were added at the final concentration of 10 μM to examine their ability to inhibit differentiation.

[1] = system: human intestinal microsomes; assay: Metabolism of isoflavone mixtures by human intestinal microsomes; format: in vitro ADME
Method: (§2) Human liver microsomes, intestinal microsomes, and hepatocytes of human female origin were purchased from XenoTech. All chemicals were purchased from Sigma-Aldrich. […] The final DMSO in buffer or media was kept at 0.1%. Protocols supplied by XenoTech Inc., the supplier, were used for glucuronidation with microsomal incubation, and hepatocyte incubation. Samples were analyzed using LC/MS.

human hepatocytes = assay: Metabolism of isoflavone mixtures by human hepatocytes; format: in vitro ADME
Method: as §2

[2] = Solubility interactions of isoflavones in fasted simulated intestinal fluid (FaSSIF); format: physicochemical; details: for Biochanin A saturation concentration: fasted media, 37° C.
Method: Isoflavones: daidzein, genistein, formononetin and Biochanin A were obtained from Indofine. Simulated intestinal fluid buffer powder mimicking a fasted state (FaSSIF) was obtained from Biorelevant SIF media, Biorelevant.com, Switzerland.
To prepare accurate concentrations of isoflavones in microtubes, stock solutions of individual isoflavones were prepared at 1 mg/mL in methanol. The amount of isoflavone designated to be held constant was provided at a concentration that well exceeded (about 20×) the saturation concentration for that isoflavone. The appropriate amount of stock was transferred to each microtube and the material was dried down in a vacuum centrifuge.
The competing isoflavone was prepared at 0, 1, 5, 10, 50, 100, 200 μg/mL (FIGS. 11 and 12) and, in the case of formononetin, 400 μg/mL (FIG. 9).
In the case of formononetin competition with Biochanin A, the amount of formononetin was held constant at 50 μg in 1 ml buffer (saturation concentration for formononetin in FaSSIF is about 2 μg/mL). The competing Biochanin A was prepared at 0, 1, 5, 10, 50, 100 and 200 μg/mL (FIG. 10).
Each tube was then reconstituted with 1 mL of FaSSIF buffer, sonicated and allowed to equilibrate with occasional agitation for 24 hours at 37° C. This produced a solution that contained saturated isoflavone concentrations mimicking mammalian intestinal conditions.
At the end of 24 hours each tube containing isoflavones and FaSSIF buffer was briefly centrifuged at 5000 rpm in a microcentrifuge held at 37° C. (2 minutes). A portion of the supernatant (400 μL) was then immediately placed in a centrifugal filter unit (UltraFree-MC-GV […]) and the sample filtered by centrifugation (8000 rpm, 5 minutes, 37° C.). Upon filtration 200 μL filtrate was immediately placed in a microtube and 200 μL methanol added to ensure that the isoflavones remained in solution. The sample was mixed and 200 μL of the mixture was transferred to injection vials provided with 200 μL polypropylene injection inserts.
The samples were analyzed by HPLC with diode array detection at 260 nm using 20 μL injections.

[3] = system: human intestinal microflora; assay: Biotransformation by human intestinal bacteria (fecal microflora incubation); format: in vitro ADME; details: for isoflavone left in the incubation media: human, 120 h, 100 µM
Method: Fresh human fecal samples were collected from 4 volunteers. Five grams of each were pooled together and mixed well with 30 mL BHI culture medium. The fecal suspension was centrifuged at 200 g for 5 min and supernatant was decanted and centrifuged at 5,000 g for another 30 min. The resultant precipitate was re-suspended with 10 mL BHI medium to produce intestinal micro flora solution.
As the biotransformation of drugs by human intestinal bacteria was determined in a 5 mL incubation system containing 250 μL intestinal microflora solution, 50 μL stock solution in DMSO in BHI medium. […] Zero-minute incubations served as controls. Reactions were stopped by extracting samples with 15 ml of ethanol twice. The two ethanol extractions were combined, dried and re-suspended in 80% methanol for HPLC/MS analysis.

[4] = Plasma protein binding of absorbable aglycones; format: in vitro ADME
Source text: as §1

in vitro = details: human, Caco-2
[5] = CaCo-2 permeability of isoflavones in a Red clover extract; details: human

Row | Structure (SMILES) | osteoclast differentiation (Raw264.7 cells) | bio-transformation products formed by intestinal microflora [3] | fraction unbound [4] | metabolism by human intestinal microsomes ([1]; female, human) [ml/min/mg protein] | rate of metabolism by human hepatocytes (human hepatocytes; female, human) [ml/min/million cells] | Papp [5] [×10⁻⁶ cm/s] | also measured
1 | COc1ccc(-c2coc3cc(O[C@@H]4O[C@H](CO)[C@@H](O)[C@H](O)[C@H]4O)cc(O)c3c2=O)cc1 [Biochanin A glucoside] |  |  |  |  |  |  | Mean Peff (Caco-2): 0.0164 ×10⁻⁶ cm/s
2 | COc1ccc(-c2coc3cc(O)cc(O)c3c2=O)cc1 [Biochanin A] | highest inhibition | dihydrobiochanin A, genistein, and dihydrogenistein |  |  |  |  | Plasma protein binding (plasma protein): over 97%; ALP activity (osteoblast differentiation) (MC3T3 cells): highest ALP activity; Mean Peff (Caco-2): 10.8 ×10⁻⁶ cm/s; metabolism by human intestinal microsomes [1]: 5.41E-4 ml/min/mg protein; rate of metabolism by human hepatocytes (human hepatocytes): 8.88E-6 ml/min/million cells; Biochanin A saturation concentration ([2]; in the presence of 200 μg/mL daidzein): about 8.7 μg/mL; Biochanin A saturation concentration ([2]; in the presence of 200 μg/mL genistein): about 24.2 μg/mL; Biochanin A saturation concentration ([2]; in the presence of 400 μg/mL formononetin): about 4.5 μg/mL
3 | O=c1c(-c2ccc(O)cc2)coc2cc(O)ccc12 [Daidzein] | stimulating osteoclast differentiation |  | ~0.2 | 6.32E-5 | 4.07E-6 |  | Papp (in vitro): 26.6 ×10⁻⁶ cm/s
4 | O=c1c(-c2ccc(O)cc2)coc2cc(O[C@@H]3O[C@H](CO)[C@@H](O)[C@H](O)[C@H]3O)ccc12 [Daidzin] |  |  |  |  |  | 0.536 | 
5 | Oc1ccc([C@H]2COc3cc(O)ccc3C2)cc1 [Equol] |  | most resistant to bio-transformation | < 0.03 | 1.07E-4 | 1.21E-5 |  | isoflavone left in the incubation media [3]: over 60%
6 | COc1ccc(-c2coc3cc(O)ccc3c2=O)cc1 [Formononetin] |  | dihydroformononetin, dihydrodaidzein, daidzein, and equol | < 0.03 | 7.31E-5 | 3.45E-6 | 22 | solubility thermodynamic at 24 h ([2]; 37 °C, fassif, thermodynamic from solid): ~2 µg/mL (≈ 7.46 µM); isoflavone left in the incubation media [3]: over 20%
7 | O=c1c(-c2ccc(O)cc2)coc2cc(O)cc(O)c12 [Genistein] | stimulating osteoclast differentiation |  | < 0.03 |  |  | 27.5 | metabolism by human intestinal microsomes ([1]; isoflavone mixtures, glucuronidation, female origin): 4.28E-4 ml/min/mg protein; rate of metabolism by human hepatocytes (human hepatocytes; isoflavone mixtures, female origin): 5.14E-6 ml/min/million cells; bio-transformation products formed by intestinal microflora ([3]; 100 μM, anaerobic, 37° C., up to 120 h): dihydrogenistein
8 | O=c1c(-c2ccc(O)cc2)coc2cc(O[C@@H]3O[C@H](CO)[C@@H](O)[C@H](O)[C@H]3O)cc(O)c12 [Genistin] |  |  |  |  |  | 0.346 | 
9 | COc1ccc(-c2coc3cc(O[C@@H]4O[C@H](CO)[C@@H](O)[C@H](O)[C@H]4O)ccc3c2=O)cc1 [Ononin] |  |  |  |  |  | 0.122 | 
